The text below walks through data of PubChem BioAssay (NCI).

The structures appear in SMILES notation. “And” between values parts separate entries of the source, which are not always exact repeats. Equal values may be shown once.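 Grown in 96-well plates, cells were treated for 48 hours with each compound at five concentrations. Insufficient inhibition: endpoint recorded as highest concentration tested. Here, GI50 denotes the concentration required for 50% inhibition of growth. TGI marks complete inhibition of growth.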

Common to all, as to assay: NCI-60 cell line screen, 48 h
Assay [1] has as its system 786-0 renal.
Assay [2] relates to EKVX NSCLC.
The subject of assay [3] is HCT-116 colon.
Assay [4] has as its system HS 578T breast.
Assay [5] has as its system NCI-H522 lung.
Assay [6] deals with OVCAR-5 ovarian.
Assay [7] concerns RPMI-8226 leukemia.
Assay [8] deals with RXF 393 renal.
Assay [9] has as its system SK-MEL-5 melanoma.
The test system of assay [10] is U251 CNS.

Consider `Cc1nc(Nc2ccc(Cl)c(Cl)c2)sc1C(/C=C/c1ccc2c(c1)OCO2)=N/Nc1ccc([N+](=O)[O-])cc1[N+](=O)[O-]`, for which the TGI in [1], in assay [2], in assay [3], in assay [4], in assay [5] and in assay [6] was greater than 100 µM throughout. The TGI in assay [7] is greater than 100 µM; in assay [8], 67.2 µM; in [9] it was greater than 100 µM; in assay [10], greater than 100 µM.
With `CC(=O)OCCc1cc2ccccc2oc1=O`, the TGI in [1], in [2], in assay [3], in assay [4], in [5] and in assay [6] was greater than 100 µM in each case. Further, the TGI in assay [7], in assay [8], in assay [9] and in assay [10] was greater than 100 µM in each case.
Regarding `CC(C)(C)c1cnc(CSc2cnc(NC(=O)C3CCNCC3)s2)o1`, the GI50 was 0.47 µM and 0.698 µM in assay [1]; 0.427 µM in [2]; 0.102 µM and 0.0797 µM in assay [3]; 0.334 µM and 0.226 µM in [4]; 0.189 µM and 0.175 µM in assay [5]; 0.241 µM and 0.124 µM in [6]. In addition, the GI50 was 0.118 µM and 0.243 µM in [7]; 0.124 µM and 0.157 µM in [8]; 0.238 µM and 0.563 µM in assay [9]; 0.193 µM and 0.2 µM in assay [10]. Moreover, the TGI in assay [1] was greater than 47.7 µM; in assay [2], greater than 10 µM; in assay [3], greater than 100 µM; in assay [4], greater than 2.64 µM; in assay [5], 0.494 µM and 0.565 µM; in [6] it was greater than 100 µM. The TGI is 0.45 µM and 0.768 µM in assay [7]; 0.354 µM and 0.509 µM in assay [8]; 0.644 µM and 2.18 µM in assay [9]; 27.6 µM and > 10 µM in assay [10].
Take `Fc1nc(Sc2ncnc3nc[nH]c23)nc(-c2c3ccccc3c3sc4ccccc4n23)n1`: the TGI in assay [1], in [2], in assay [3], in assay [4], in assay [5] and in [6] was greater than 100 µM throughout. Also, the TGI in assay [7], in assay [8], in [9] and in [10] was greater than 100 µM throughout.
As to `CNc1ccc(CSc2ccc(C)cc2)cc1`, the GI50 in [1] was 4.45 µM; in [2] it was 15.3 µM; in assay [3], 32.9 µM; in assay [4], 56 µM; in assay [5] it was 3.62 µM; in [6] it was 71.3 µM. Also, the GI50 in assay [7] is 1.52 µM; in assay [8] it was 11.4 µM; in assay [9], 13.8 µM; in [10], 9.85 µM. For the same compound, the TGI in assay [1] is greater than 100 µM; in assay [2], greater than 100 µM; in assay [3], greater than 100 µM; in assay [4], greater than 100 µM; in assay [5], 23.7 µM; in assay [6] it was greater than 100 µM. In addition, the TGI in assay [7] is 21.6 µM; in [8] it was 87.2 µM; in assay [9], 32.6 µM; in assay [10], greater than 100 µM.
As for `CCCCCCC1CCCCN1C(c1ccccc1)C(O)c1ccccc1` (stereo not given), the GI50 was 3.97 µM in [1]; 5.87 µM in assay [2]; 3.11 µM in assay [3]; 6.68 µM in assay [4]; 5.1 µM in [5]; 10.1 µM in assay [6]. Also, the GI50 in assay [7] is 2.61 µM; in [8], 2.18 µM; in assay [9] it was 2.48 µM; in assay [10] it was 5.98 µM. For the same compound, the TGI was found to be 13.6 µM in assay [1]; 21.3 µM in [2]; 11.7 µM in assay [3]; 21.1 µM in [4]; 18.5 µM in assay [5]; 22 µM in assay [6]. Besides, the TGI in [7] worked out at 6.08 µM; in [8], 6.77 µM; in assay [9], 5.88 µM; in [10] it was 18.9 µM.
Take `COc1cc(/C=C/C(=O)/C=C/c2ccc(-n3ccnc3)cc2)ccc1O`: the GI50 in assay [1] was 2.01 µM; in assay [2] it was 13.2 µM; in assay [3], 1.45 µM; in [4], 2.91 µM; in assay [5] it was 4.98 µM; in assay [6] it was 16.6 µM. In addition, the GI50 is 1.54 µM in assay [7], 1.81 µM in assay [8], 3.43 µM in assay [9] and 2.21 µM in assay [10]. The TGI is 4.85 µM in [1]; 42 µM in [2]; 2.93 µM in [3]; greater than 100 µM in assay [4]; 18.9 µM in assay [5]; 33.9 µM in assay [6]. The TGI in [7] came out at 4.46 µM; in assay [8], 3.42 µM; in [9] it was 12 µM; in assay [10], 5.24 µM.
As for `COc1ccc(N=C2C(=O)Nc3ccc(Br)cc32)cc1`, the TGI in assay [1] is 43.6 µM; in assay [2], 47.1 µM; in assay [3] it was 35.2 µM; in assay [4], greater than 100 µM; in [5], 24.9 µM; in assay [6] it was 58 µM. Also, the TGI in assay [7] was 25.2 µM; in assay [8], 36.9 µM; in assay [9] it was 23.3 µM; in assay [10] it was 96.8 µM.
Turning to `COc1cc(C(=O)/C=C/c2c(C)n([O-])c3ccc(Cl)cc3[n+]2=O)cc(OC)c1OC`, the GI50 in assay [1] is 13.2 µM; in [2] it was 8.46 µM; in assay [3] it was 2.75 µM; in assay [4], 1.75 µM; in [5], 1.12 µM; in assay [6] it was 27 µM. Moreover, the GI50 was 3.18 µM in assay [7], 3.37 µM in assay [8], 12.1 µM in assay [9] and 4.52 µM in assay [10]. Moreover, the TGI was 92.4 µM in assay [1]; greater than 100 µM in assay [2]; 12.2 µM in assay [3]; 8.97 µM in [4]; 2.8 µM in assay [5]; greater than 100 µM in assay [6]. In addition, the TGI in assay [7] is 33.4 µM; in assay [8] it was 91 µM; in assay [9], greater than 100 µM; in assay [10] it was 72.3 µM.
